One series addresses T1, ASICs (Mus musculus, UniProt Q6NXK8).
T1 construct: endogenous in cells; host or cells: primary cortical neurons from E16 Swiss mice
T1 sequence (Q6NXK8 1-526): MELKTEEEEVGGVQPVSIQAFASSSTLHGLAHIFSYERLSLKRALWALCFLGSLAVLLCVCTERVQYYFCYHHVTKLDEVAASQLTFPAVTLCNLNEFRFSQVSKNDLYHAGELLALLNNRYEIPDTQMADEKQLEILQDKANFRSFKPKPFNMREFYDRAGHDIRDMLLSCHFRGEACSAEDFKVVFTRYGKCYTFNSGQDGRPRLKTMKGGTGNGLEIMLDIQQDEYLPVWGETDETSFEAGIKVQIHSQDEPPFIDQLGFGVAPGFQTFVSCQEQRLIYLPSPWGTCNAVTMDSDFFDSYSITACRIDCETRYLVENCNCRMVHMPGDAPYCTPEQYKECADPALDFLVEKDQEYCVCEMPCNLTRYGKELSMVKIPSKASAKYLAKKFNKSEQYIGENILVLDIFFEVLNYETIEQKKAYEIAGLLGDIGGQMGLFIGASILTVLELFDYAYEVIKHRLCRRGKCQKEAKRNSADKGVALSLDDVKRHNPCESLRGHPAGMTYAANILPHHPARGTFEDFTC
It counts as cell-based. As to conditions: 100 µM amiloride; pH 6.0; n=6.

The test system of a further series is cortical neurons. It counts as cell-based, mouse. As to the method:
(§1) Background absorbance at 620 was subtracted.
Acid-induced injury was studied on neurons grown on 24-well plates incubated in either pH 7.4 or 6.0 ECF containing MK801, CNQX, and nimodipine; see FIG. 8. Cell injury was assayed by the measurement of lactate dehydrogenase (LDH) release (Koh and Choi, J. Neurosci., 1987, 20:83-90) at various time points (FIGS. 8A and 8B) and by fluorescent staining of alive/dead cells. Compared to neurons treated at pH 7.4, 1 hr acid incubation (pH 6.0) induced a time-dependent increase in LDH release (FIG. 8A). After 24 hr, 45.7% ± 5.4% of maximal LDH release was induced (n=25 wells). Continuous treatment at pH 6.0 induced greater cell injury (FIG. 8B, n=20).

A further series concerns ASIC1^-/- neurons. Format: cell-based, mouse. To be noted: ASIC1^-/- neurons; n=8 each. As to the method: Following anesthesia with halothane, cerebral cortices were dissected from E16 Swiss mice or P1 ASIC1+/+ and ASIC1-/- mice and incubated with 0.05% trypsin-EDTA for 10 min at 37° C. Tissues were then triturated with fire-polished glass pipettes and plated on poly-L-ornithine-coated 24-well plates or 25x25 mm glass coverslips at a density of 2.5x10^5 cells per well or 10^6 cells per coverslip. Neurons were cultured with MEM supplemented with 10% horse serum (for E16 cultures) or Neurobasal medium supplemented with B27 (for PI cultures) and used for electrophysiology and toxicity studies after 12 days. Glial growth was suppressed by addition of 5-fluoro-2-deoxyuridine and uridine, yielding cultured cells with 90% neurons as determined by NeuN and GFAP staining (data not shown).
as §1
. […] . In contrast to acid incubation, 1 hr treatment of ASIC1^-/- neurons with 1 mM NMDA+10 µM glycine (in Mg^2+-free [pH 7.4] ECF) induced 84.8% ± 1.4% of maximal LDH release at 24 hr (n=4, FIG. 9C), indicating normal response to other cell injury processes.

In the next series the target is TRPM7 channels (Homo sapiens, UniProt Q96QT4). Nature of the series: Conductance of TRPM7 channels. Format: cell-based.
TRPM7 channels, sequence (Q96QT4 whole entry): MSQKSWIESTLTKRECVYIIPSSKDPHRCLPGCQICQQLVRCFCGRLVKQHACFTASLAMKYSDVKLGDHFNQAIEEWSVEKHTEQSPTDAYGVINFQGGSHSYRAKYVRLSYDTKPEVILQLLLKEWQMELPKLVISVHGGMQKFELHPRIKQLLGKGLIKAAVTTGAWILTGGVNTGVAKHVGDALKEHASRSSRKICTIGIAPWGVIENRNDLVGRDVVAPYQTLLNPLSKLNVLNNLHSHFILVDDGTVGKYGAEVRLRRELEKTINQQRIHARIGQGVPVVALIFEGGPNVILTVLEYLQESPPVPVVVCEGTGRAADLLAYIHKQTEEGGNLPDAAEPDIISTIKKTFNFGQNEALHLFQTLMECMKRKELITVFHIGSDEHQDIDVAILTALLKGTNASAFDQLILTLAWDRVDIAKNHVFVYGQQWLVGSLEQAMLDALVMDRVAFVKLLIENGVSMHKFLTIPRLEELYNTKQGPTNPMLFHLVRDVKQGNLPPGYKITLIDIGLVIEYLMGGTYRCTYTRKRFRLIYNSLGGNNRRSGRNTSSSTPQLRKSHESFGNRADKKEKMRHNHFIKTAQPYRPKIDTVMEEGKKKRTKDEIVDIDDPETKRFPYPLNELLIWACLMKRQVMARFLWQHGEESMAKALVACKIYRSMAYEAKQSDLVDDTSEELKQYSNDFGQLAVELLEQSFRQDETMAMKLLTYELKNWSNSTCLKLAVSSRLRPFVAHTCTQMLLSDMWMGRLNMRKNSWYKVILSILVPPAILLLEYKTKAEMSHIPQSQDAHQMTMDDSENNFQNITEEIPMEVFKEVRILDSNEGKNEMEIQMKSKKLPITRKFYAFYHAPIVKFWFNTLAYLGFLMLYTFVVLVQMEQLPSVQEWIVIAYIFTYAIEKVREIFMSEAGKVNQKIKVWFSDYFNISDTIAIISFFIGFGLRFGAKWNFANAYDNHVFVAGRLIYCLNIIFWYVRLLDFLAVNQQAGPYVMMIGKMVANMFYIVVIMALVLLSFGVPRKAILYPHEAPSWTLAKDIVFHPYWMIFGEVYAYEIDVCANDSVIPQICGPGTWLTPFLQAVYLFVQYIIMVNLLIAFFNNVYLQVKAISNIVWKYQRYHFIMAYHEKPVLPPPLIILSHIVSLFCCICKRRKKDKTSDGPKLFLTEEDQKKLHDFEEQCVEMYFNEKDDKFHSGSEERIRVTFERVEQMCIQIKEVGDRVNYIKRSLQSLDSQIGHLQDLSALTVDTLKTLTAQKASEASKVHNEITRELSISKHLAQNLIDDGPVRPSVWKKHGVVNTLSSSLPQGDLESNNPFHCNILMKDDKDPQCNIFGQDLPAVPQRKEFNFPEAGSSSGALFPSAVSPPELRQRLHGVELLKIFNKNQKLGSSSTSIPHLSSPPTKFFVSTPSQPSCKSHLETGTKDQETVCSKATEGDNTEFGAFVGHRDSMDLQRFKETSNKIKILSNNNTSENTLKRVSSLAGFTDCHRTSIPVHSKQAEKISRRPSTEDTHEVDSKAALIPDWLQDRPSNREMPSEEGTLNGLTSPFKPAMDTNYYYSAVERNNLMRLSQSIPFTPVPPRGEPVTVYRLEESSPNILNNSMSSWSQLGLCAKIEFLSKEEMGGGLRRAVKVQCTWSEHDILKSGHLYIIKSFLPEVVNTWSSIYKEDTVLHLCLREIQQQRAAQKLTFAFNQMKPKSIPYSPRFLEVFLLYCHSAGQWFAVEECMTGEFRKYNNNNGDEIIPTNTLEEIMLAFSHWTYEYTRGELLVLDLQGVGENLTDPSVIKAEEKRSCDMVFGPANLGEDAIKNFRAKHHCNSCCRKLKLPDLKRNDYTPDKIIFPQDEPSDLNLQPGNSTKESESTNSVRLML
Series [1] is classed as in vivo, rats. To be noted: n=11.
The target in a further series is T2, ASIC2a (Homo sapiens, UniProt Q16515).
T2 construct: expressed in transfected cells; host or cells: CHO
T2 sequence (Q16515 1-512): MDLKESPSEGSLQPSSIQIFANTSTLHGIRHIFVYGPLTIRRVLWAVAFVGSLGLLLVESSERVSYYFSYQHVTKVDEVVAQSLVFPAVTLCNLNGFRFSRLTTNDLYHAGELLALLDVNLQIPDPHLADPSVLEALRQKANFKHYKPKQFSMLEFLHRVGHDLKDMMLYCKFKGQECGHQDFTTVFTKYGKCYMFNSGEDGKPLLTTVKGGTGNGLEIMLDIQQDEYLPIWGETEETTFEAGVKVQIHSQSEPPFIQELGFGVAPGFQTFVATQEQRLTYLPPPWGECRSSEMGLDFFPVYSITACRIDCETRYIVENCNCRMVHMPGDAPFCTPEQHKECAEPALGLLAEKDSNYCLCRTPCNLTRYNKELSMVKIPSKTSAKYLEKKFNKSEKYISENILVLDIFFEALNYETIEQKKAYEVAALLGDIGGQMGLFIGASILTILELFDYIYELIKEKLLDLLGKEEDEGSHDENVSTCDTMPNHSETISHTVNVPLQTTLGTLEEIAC
Nature of the series: Blockade of ASIC 2a current expressed in CHO cells. Format: cell-based. As to conditions: CHO cells, FIG. 17.

The nature of series [2]: Mouse 60 min MCAO, intravenous injection, infarct volume. It counts as in vivo. To be noted: mice, intravenous injection 1, 3 or 5 hours after MCAO, FIG. 19.
In the next series the target is T3, ASIC1a (Homo sapiens, UniProt P78348).
T3 sequence (P78348 1-528): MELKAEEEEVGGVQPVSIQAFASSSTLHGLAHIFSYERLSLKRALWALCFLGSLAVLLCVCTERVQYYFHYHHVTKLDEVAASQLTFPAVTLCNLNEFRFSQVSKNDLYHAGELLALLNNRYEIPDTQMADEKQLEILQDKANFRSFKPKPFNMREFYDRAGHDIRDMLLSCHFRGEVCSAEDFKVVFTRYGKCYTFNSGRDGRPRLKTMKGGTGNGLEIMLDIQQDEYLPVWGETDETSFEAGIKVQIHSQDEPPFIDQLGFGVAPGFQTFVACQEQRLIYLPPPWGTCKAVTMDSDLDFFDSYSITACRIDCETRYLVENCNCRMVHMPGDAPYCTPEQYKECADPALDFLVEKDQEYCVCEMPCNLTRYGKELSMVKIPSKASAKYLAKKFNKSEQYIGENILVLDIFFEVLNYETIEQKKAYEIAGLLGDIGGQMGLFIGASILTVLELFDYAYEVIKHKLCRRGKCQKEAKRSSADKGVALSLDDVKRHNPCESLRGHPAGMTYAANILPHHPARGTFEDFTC
Nature of the series: Blockade of ASIC 1a current expressed in CHO cells. Format: cell-based. On the set-up: expressed in transfected cells; host or cells: CHO. To be noted: CHO cells, FIG. 16.

Series [3] relates to COS-7 cells stably transfected with ASIC1a. Nature of the series: Acid-induced LDH release in ASIC1a-transfected COS-7 cells. As to conditions: 100 µM; 1 hr pH 6.0, LDH 24 hr after acid incubation.

Read-outs that look alike come from different tables or passages of the source.

On to `N=C(N)NC(=O)c1nc(Cl)c(N)nc1N` [amiloride], for which the “peak amplitude of Ca^2+-mediated current, of control” value at ASICs is reported as 26% ± 2%. Besides, the “LDH release at 24 hr” value in the series on cortical neurons (100 µM amiloride 10 min before and during 1 hr pH 6.0 incubation, without blocker 45.3% ± 3.8%) is 31.1% ± 2.5%. Further, the “LDH release induced by 1 hr acid incubation of ASIC^+/+ neurons” value with cortical neurons (pH 6.0, n=8-12) is on record as “reduced”. Further, in the series on cortical neurons (pH 7.4 ECF for 1 hr), the “baseline LDH release” value is recorded as “did not affect”. In addition, the “LDH release, prolonged incubation with amiloride alone” value in the series with cortical neurons (prolonged incubation (e.g., 5 hr), n=8) is recorded as “increased LDH release”. Further, in the series with ASIC1^-/- neurons, the “effect on acid-induced LDH release after knockout of the ASIC1 gene” value is “eliminated the effect”. Also, at TRPM7 channels, the “conductance of TRPM7 channels” value is “no effect”. Also, the infarct volume in series [1] is listed as 229.7 ± 41.1 mm^3; in series [2], “effectively reduce infarct volume”. Further, the “block of ASIC2a current” value at ASIC2a is given as “dose-dependent”. On ASIC1a, the “block of ASIC1a current” value is “dose-dependent”. The “acid-induced LDH release” value in series [3] is given as “inhibited”.
